Reference: US9061984B2 (University of Louisville Research Foundation, Inc., priority 2008, dated 2015)
Values after ≈ are worked out from the molar mass of the structure shown. Read-outs that look alike come from different tables or passages of the source.

Legend:
[1] = test system: peritoneal macrophages; assay: Toxicity to peritoneal macrophages (Trypan Blue count); assay type: cell-based, BALB/C mouse; conditions: Mus musculus, Peritoneal macrophage, 48 h; Table 7; read-out: IC50 Macrophage
[2] = test system: axenic amastigotes of L. amazonensis (strain MHOM/BR/76/LTB-012); assay: microbe, parasite or virus in culture; conditions: Leishmania amazonensis
[3] = test system: L. amazonensis Lma CL1; assay: Activity against macrophages infected with Leishmania amastigotes; conditions: Leishmania amazonensis, Macrophage, 48 h, read-out: IC50 L. amazonensis Lma CL1
Method: (§3) A cloned line of Leishmania amazonensis(strain MHOM/BR/76/LTB-012) was used in all experiments. Axenically grown amastigote forms of L. amazonensis were maintained by weekly subpassages in MAA/20 medium (Sereno and Lemesre, Antimicrobial Agents and Chemotherapy 41, 972-976 (1997)) at 32±1° C. in 25 cm^2 tissue culture flasks. L. peruviana (strain MHOM/PE/LCA08) and L. braziliensis (strainMHOM/PE/PER006) were maintained in the promastigote stage in a biphasic medium (blood agar with 0.89% NaCl, pH 7.4) at 24° C., with sub-passage every 3 to 4 days. Promastigotes (5×10^6 parasites) were then transferred to 25 cm2 tissue culture flasks containing 5 ml of M199 medium supplemented with 10% foetal bovine serum (FBS), pH 7.4. After 4 days, exponential phase promastigotes were centrifuged for 10 minutes at 1500 g and 4° C. The supernatant was discarded and replaced by fresh M199 medium supplemented with 20% FBS, pH 5.5. Axenic amastigotes transformation was then induced by increasing the temperature to 34° C. and incubating for 96 h (Teixeira et al., Parasitology Research 88, 963-968 (2002)).
(§4) Extracted cells were immediately deposited on sterile 4×4 mm cover glasses and placed in each well of a 96-well plate. Plates were incubated for 24 h at 37° C., 5% CO2 to allow cell adhesion (Castillo et al, Journal of Ethnopharmacology 112, 410-414 (2007)). Pre-warmed complete M199 medium was used twice to remove non-adherent cells. A neutral red method (Fautz et al., Mutation Research 253, 173-179 (1991)) was employed to determine cell concentration. Approximately 7×10^4 viable cells were deposited in each well for adhesion.
(§5) Infection of macrophages by amastigotes was determined as follows. […] Twelve hours after infection, a solution of the compounds to be tested was added to the cultures at various concentrations and maintained at 37° C. in 5% CO2 for a further forty-eight hours more. The plates were fixed with methanol and stained with 10% Giemsa stain. The percentage of infected macrophages was determined microscopically at 100 times magnification. The number of intracellular amastigotes was determined in 300 cells. Following Delorenzi et al. Antimicrobial Agents and Chemotherapy, 45, 1349-1354 (2001)) the percentage of infection rate (% IR) of each culture was calculated as follows: % IR=100−(infection rate of the treated culture/infection rate of the untreated culture)×100.
(§6) All experiments were performed in triplicate. ANOVA was used to test for statistical significance of differences (Epi-Info, Statview student program). The total parasite burden was calculated as a mean number of amastigotes per cells multiplied by the number of infected macrophages.

[4] = test system: L. braziliensis PER006; assay: as above; conditions: Leishmania braziliensis, Macrophage, read-out: IC50 L. braziliensis PER006
Method: as §3, §4, §5, §6

[5] = test system: L. peruviana LCA08; assay: as above; conditions: Leishmania peruviana, Macrophage, read-out: IC50 L. peruviana LCA08
Method: as §3, §4, §5, §6

[6] = test system: L. amazonensis; conditions: for Lesion diameter / Reduction of parasite burden After 4 weeks / Reduction of parasite burden After 7 weeks / Mean lesion size (mm) / Mean parasite quantification (per 10^6) in lesion per mg (±SD) / Mean lesion wt (mg) (±SD) / % Variation of lesion wt / % reduction of parasite burden in the lesion: compounds 5 mg/kg/day, intralesional; for Lesion diameter / Reduction of parasite burden After 4 weeks / Reduction of parasite burden After 7 weeks: Glucantime 33 mg/kg/day; for cutaneous toxicity: at the tested doses (5 mg/kg/day intralesional); for Mean lesion size (mm) / Mean parasite quantification (per 10^6) in lesion per mg (±SD) / Mean lesion wt (mg) (±SD) / % Variation of lesion wt / % reduction of parasite burden in the lesion: Glucantime 33 mg Sb(v)/kg/day; for Mean lesion wt (mg) (±SD): BALB/c mice n=10; for % Variation of lesion wt / % reduction of parasite burden in the lesion: vs control
[7] = test system: 3T3 cells; assay: Cell growth inhibition bioassay (sulforhodamine B); assay type: cell-based, mouse; conditions: Mus musculus, NIH3T3; 48 h, SRB; read-out: GI50 in indicated cell line: 3T3
Outline: (§1)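 Cells were exposed to compound alongside matched solvent controls, then stained with sulforhodamine B. Percent growth inhibition was calculated from dye absorbance against the control.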

[8] = test system: DU145 cells; assay: Cell growth inhibition bioassay (sulforhodamine B); assay type: cell-based, human; conditions: Homo sapiens, DU-145; 48 h, SRB; read-out: GI50 in indicated cell line: DU145
Outline: (§2)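 Human cancer cells (MCF-7 breast, DU145 and PC3 prostate, H460 large cell lung) were treated with compounds. Growth relative to solvent control was quantified by SRB protein stain.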

[9] = test system: H460 cells; assay: Cell growth inhibition bioassay (sulforhodamine B); assay type: cell-based, human; conditions: Homo sapiens, NCI-H460; 48 h, SRB; read-out: GI50 in indicated cell line: H460
Outline: as §2

[10] = test system: HT-29 cells; assay: Cell growth inhibition bioassay (sulforhodamine B); assay type: cell-based, human; conditions: Homo sapiens, HT-29; 48 h, SRB; read-out: GI50 in indicated cell line: HT-29
Outline: as §1

[11] = test system: K562 cells; assay: Cell growth inhibition bioassay (sulforhodamine B); assay type: cell-based, human; conditions: Homo sapiens, K562; 48 h, SRB; read-out: GI50 in indicated cell line: K562
Outline: as §1

[12] = test system: M-14 cells; assay: Cell growth inhibition bioassay (sulforhodamine B); assay type: cell-based, human; conditions: Homo sapiens, M14; 48 h, SRB; read-out: GI50 in indicated cell line: M-14
Outline: as §1

[13] = test system: MCF-7 cells; assay: Cell growth inhibition bioassay (sulforhodamine B); assay type: cell-based, human; conditions: Homo sapiens, MCF7; 48 h, SRB; read-out: GI50 in indicated cell line: MCF-7
Outline: as §2

[14] = test system: VERO cells; assay: Cell growth inhibition bioassay (sulforhodamine B); assay type: cell-based, African Green Monkey; conditions: Chlorocebus sabaeus, Vero; 48 h, SRB; read-out: GI50 in indicated cell line: VERO
Outline: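 Cytotoxicity is read by sulforhodamine B colorimetry following the Skehan protocol; values are growth inhibition relative to solvent-only wells.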

[15] = test system: Trypanosoma cruzi (Tulahuen C4); assay: In vitro anti-T. cruzi activity (β-galactosidase CPRG colorimetric assay in VERO monolayer); assay type: cell-based; conditions: for Selectivity Index Lab B: IC50, VERO/IC50, T. cruzi; for IC50: Trypanosoma cruzi, TULAHUEN, Vero
[16] = test system: M. tuberculosis H37Rv; assay: Conventional aerobic (MABA) culture assay, luminescence MIC; assay type: cell-based, Mycobacterium tuberculosis; conditions: for MIC: Mycobacterium tuberculosis, 168 h, aerobic, 7 days, H37Rv; for Selectivity Index H37Rv: VERO vs MABA MIC
[17] = Toxicity to peritoneal macrophages (Trypan Blue count); assay type: cell-based, BALB/C mouse; conditions: BALB/C, mouse, Cytotoxicity Macrophages IC50
[18] = test system: axenic amastigotes of L. amazonensis (strain MHOM/BR/76/LTB-012); conditions: Table 8b
[19] = Cytotoxicity VERO cell (Table 6); conditions: African green monkey, VERO cells
[20] = Cytotoxicity on VERO cells (MTT), anti-T. cruzi study; conditions: African green monkey, VERO cells, Cytotoxicity VERO Lab B, Lab B
[21] = 72 h, read-out: IC50 L. amazonensis
[22] = Lab A, read-out: T. cruzi IC50 Lab A
[23] = Lab B, read-out: T. cruzi IC50 Lab B

SMILES	IC50 [1] [µM]	IC50 [2, 21] [µM]	IC50 [3] [µM]	IC50 ([4]; 48 h) [µM]	GI50 [7] [µg/mL]	GI50 [8] [µg/mL]	GI50 [9] [µg/mL]	GI50 [10] [µg/mL]	GI50 [11] [µg/mL]	GI50 [12] [µg/mL]	GI50 [13] [µg/mL]	GI50 [14] [µg/mL]	Selectivity Index Lab B ([15]; Lab B)	IC50 [15, 23] [µg/mL]	MIC [16] [µg/mL]	Selectivity Index H37Rv [16]	IC50 at 48 h [17] [µM]	Selectivity Index [18]	IC50 [19] [µg/mL]	IC50 ([2]; read-out: L. amazonensis IC50) [µM]	also measured
COc1ccc(/C=C/C(=O)c2c(O)cc(O)cc2OC)c(OC)c1 [Compound I-36, (2E)-1-(2,4-Dihydroxy-6-methoxyphenyl)-3-(2,4-dimethoxyphenyl)-2-propen-1-one]	> 300	6.4	28.5	237	–	–	–	–	–	–	–	–	–	–	–	–	–	–	–	–	IC50 ([5]; 48 h): 290 µM
C=CCOc1cc(/C=C/C(=O)c2c(O)cc(O)cc2OC)cc(OCC=C)c1Br [Compound I-42, (2E)-3-(3,5-Bis(2-propenyloxy)-4-bromophenyl)-1-(2,4-dihydroxy-6-methoxyphenyl)-2-propen-1-one]	11.5	1.1	4.1	14.4	–	–	–	–	–	–	–	–	–	–	–	–	–	–	–	–	Reduction of parasite burden (column After 7 weeks, analyzed after 6 weeks treatment) ([6]; 5 mg/kg/day intralesional, after 6 weeks treatment (footnote d)): 8^d %; Lesion diameter [6]: 4.6 mm; Reduction of parasite burden After 4 weeks [6]: 9%
COc1cc(O)cc(O)c1C(=O)/C=C/c1ccco1 [Compound I-43, (2E)-1-(2,4-Dihydroxy-6-methoxyphenyl)-3-(2-furanyl)-2-propen-1-one]	384	4.6	17	30.4	–	–	–	–	–	–	–	–	–	–	–	–	–	–	–	–	IC50 ([5]; 48 h): 34.2 µM
COCOc1cc(OC)c(C(=O)/C=C/c2ccc(OC)cc2)c(OCOC)c1 [Compound I-44]	> 250	1.3	12.1	5.15	–	–	–	–	–	–	–	–	–	–	–	–	–	–	–	–	Lesion diameter [6]: 4.7 mm; Reduction of parasite burden After 4 weeks [6]: 11%; Reduction of parasite burden After 7 weeks [6]: 17%; IC50 ([5]; 48 h): 111 µM
COCOc1cc(OC)c(C(=O)/C=C/c2ccc3c(c2)OCO3)c(OCOC)c1 [Compound I-45]	143	11.7	23.9	17.2	–	–	–	–	–	–	–	–	–	–	–	–	–	–	–	–	cutaneous toxicity [6]: did not exhibit any cutaneous toxicity; Lesion diameter [6]: 4.6 mm; Reduction of parasite burden After 4 weeks [6]: 92%; Reduction of parasite burden After 7 weeks [6]: 35%; IC50 ([5]; 48 h): 34.8 µM
COCOc1cc(O)c(C(=O)/C=C/c2cc(OC)c(OC)c(OC)c2)c(OC)c1 [Compound I-46]	132	6.2	28.7	13.1	–	–	–	–	–	–	–	–	–	–	–	–	–	–	–	–	cutaneous toxicity [6]: did not exhibit any cutaneous toxicity; Lesion diameter [6]: 5.1 mm; Reduction of parasite burden After 4 weeks [6]: 74%; Reduction of parasite burden After 7 weeks [6]: 41%; IC50 ([5]; 48 h): 19.3 µM
Oc1ccc(/C=N\Nc2ncnc3sc4c(c23)CCCC4)cc1 [II-09]	–	–	–	–	2.1 (≈ 6.47 µM)	6.8 (≈ 21 µM)	4.8 (≈ 14.8 µM)	6.3 (≈ 19.4 µM)	5.1 (≈ 15.7 µM)	5.6 (≈ 17.3 µM)	5.5 (≈ 17 µM)	6.8 (≈ 21 µM)	1.1	3.7 (≈ 11.4 µM)	23.4 (≈ 72.1 µM)	0.6	57.8	4.3	14.6 (≈ 45 µM)	13.5	IC50 [15, 22]: 2.6 µg/mL (≈ 8.01 µM); IC50 [20]: 4 µg/mL (≈ 12.3 µM)
COc1cccc(/C=N\Nc2ncnc3sc4c(c23)CCCC4)c1 [II-11]	–	–	–	–	6 (≈ 17.7 µM)	6 (≈ 17.7 µM)	5.5 (≈ 16.3 µM)	2.5 (≈ 7.39 µM)	5.3 (≈ 15.7 µM)	48.4 (≈ 143 µM)	5 (≈ 14.8 µM)	6.2 (≈ 18.3 µM)	0.9	5.7 (≈ 16.8 µM)	40.4 (≈ 119 µM)	0.6	5.5	0.5	22.7 (≈ 67.1 µM)	12.2	IC50 [15, 22]: 1.5 µg/mL (≈ 4.43 µM); IC50 [20]: 5 µg/mL (≈ 14.8 µM)
C(=N/Nc1ncnc2sc3c(c12)CCCC3)/c1ccc[nH]1 [II-19]	–	–	–	–	0.7 (≈ 2.35 µM)	1.4 (≈ 4.71 µM)	0.5 (≈ 1.68 µM)	1.1 (≈ 3.7 µM)	0.6 (≈ 2.02 µM)	0.7 (≈ 2.35 µM)	0.1 (≈ 0.336 µM)	0.6 (≈ 2.02 µM)	0.1	6.8 (≈ 22.9 µM)	6.2 (≈ 20.8 µM)	0.7	2.9	1.0	4 (≈ 13.5 µM)	3	IC50 [15, 22]: 0.6 µg/mL (≈ 2.02 µM); IC50 [20]: 1 µg/mL (≈ 3.36 µM)
Clc1ccccc1/C=N\Nc1ncnc2sc3c(c12)CCCC3 [II-29]	–	–	–	–	30.2 (≈ 88.1 µM)	26.7 (≈ 77.9 µM)	21.6 (≈ 63 µM)	19.4 (≈ 56.6 µM)	6.8 (≈ 19.8 µM)	> 62.5	7.5 (≈ 21.9 µM)	9.9 (≈ 28.9 µM)	0.7	7.3 (≈ 21.3 µM)	42.6 (≈ 124 µM)	0.7	3.8	5.0	29.3 (≈ 85.5 µM)	0.8	IC50 [20]: 5 µg/mL (≈ 14.6 µM)
Brc1ccccc1/C=N\Nc1ncnc2sc3c(c12)CCCC3 [II-31]	–	–	–	–	4.3 (≈ 11.1 µM)	2.8 (≈ 7.23 µM)	3 (≈ 7.75 µM)	3.1 (≈ 8 µM)	1.2 (≈ 3.1 µM)	6 (≈ 15.5 µM)	1.7 (≈ 4.39 µM)	2 (≈ 5.16 µM)	0.8	3.6 (≈ 9.29 µM)	9.4 (≈ 24.3 µM)	0.8	2.9	5.8	7.7 (≈ 19.9 µM)	0.5	IC50 [15, 22]: 0.8 µg/mL (≈ 2.07 µM); IC50 [20]: 3 µg/mL (≈ 7.75 µM)
CCC(CC)=NNc1ncnc2sc3c(c12)CCCC3 [II-48]	–	–	–	–	1.4 (≈ 4.85 µM)	4.3 (≈ 14.9 µM)	4.4 (≈ 15.3 µM)	11.2 (≈ 38.8 µM)	3.3 (≈ 11.4 µM)	5.9 (≈ 20.5 µM)	4.4 (≈ 15.3 µM)	7.4 (≈ 25.7 µM)	1.0	6 (≈ 20.8 µM)	46.2 (≈ 160 µM)	0.7	46.7	8.5	32.9 (≈ 114 µM)	5.5	IC50 [15, 22]: 4.8 µg/mL (≈ 16.6 µM); Mean lesion size (mm) ([6]; after 4 weeks treatment): 2.8 mm; Mean parasite quantification (per 10^6) in lesion per mg (±SD) ([6]; after 4 weeks treatment): 0.60 (±0.44) amastigotes (×10^6)/mg; Mean lesion wt (mg) (±SD) ([6]; after 4 weeks treatment): 38.2 (±11.4) mg; % Variation of lesion wt ([6]; after 4 weeks treatment): 37%; % reduction of parasite burden in the lesion ([6]; after 4 weeks treatment): 65%; Mean lesion size (mm) ([6]; after 7 weeks treatment): 4.9 mm; Mean parasite quantification (per 10^6) in lesion per mg (±SD) ([6]; after 7 weeks treatment): 1.53 (±0.18) amastigotes (×10^6)/mg; Mean lesion wt (mg) (±SD) ([6]; after 7 weeks treatment): 85.0 (±4.5) mg; % Variation of lesion wt ([6]; after 7 weeks treatment): 5%; % reduction of parasite burden in the lesion ([6]; after 7 weeks treatment): 17%; IC50 [20]: 6 µg/mL (≈ 20.8 µM); IC50 [4]: 3.2 µg/mL; IC50 [5]: 2 µg/mL
